A value given as a limit tells only on which side of the number the result lay.

(recombinant) catalytic domain of human Bub1 (amino acids 704-1085), sequence (O43683 704-1085): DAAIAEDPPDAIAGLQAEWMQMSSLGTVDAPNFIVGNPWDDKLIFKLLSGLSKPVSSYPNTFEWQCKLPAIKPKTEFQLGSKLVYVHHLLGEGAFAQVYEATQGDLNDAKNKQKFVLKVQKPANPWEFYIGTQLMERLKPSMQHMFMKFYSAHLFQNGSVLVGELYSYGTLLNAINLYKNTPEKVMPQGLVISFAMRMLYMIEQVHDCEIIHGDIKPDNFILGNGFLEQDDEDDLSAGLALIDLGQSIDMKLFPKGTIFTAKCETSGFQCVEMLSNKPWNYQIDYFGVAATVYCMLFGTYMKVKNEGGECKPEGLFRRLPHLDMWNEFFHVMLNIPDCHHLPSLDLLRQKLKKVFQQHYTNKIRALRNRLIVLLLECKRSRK

For the assay, the target named is (recombinant) catalytic domain of human Bub1 (amino acids 704-1085) (Homo sapiens (Human), UniProt O43683). The assay can be described thus: Bub1 kinase assay (TR-FRET). The class given is biochemical. To be noted: ATP 10 μM final, peptide substrate 1 μM final, 60 min at 22° C., read-out: Biological Assay: Bub1 kinase assay median IC50. As for the experimental part:
Examples were tested in selected biological assays one or more times. When tested more than once, data are reported as either average values or as median values, wherein • the average value, also referred to as the arithmetic mean value, represents the sum of the values obtained divided by the number of times tested, and • the median value represents the middle number of the group of values when ranked in ascending or descending order. If the number of values in the data set is odd, the median is the middle value. If the number of values in the data set is even, the median is the arithmetic mean of the two middle values.
To this end, 100-fold concentrated compound solutions (in DMSO) were previously prepared by serial dilution (1:3.4) of 2 mM stocks in a clear low volume 384-well source microtiter plate (Greiner Bio-One, Frickenhausen, Germany), from which 50 nl of compounds were transferred into a black low volume test microtiter plate from the same supplier. […] The resulting mixture (5 μL final volume) was incubated at 22° C. during 60 min., and the reaction was stopped by the addition of 5 μL of an aqueous EDTA-solution (50 mM EDTA, in 100 mM HEPES pH 7.5 and 0.2% (w/v) bovine serum albumin) which also contained the TR-FRET detection reagents (0.2 μM streptavidin-XL665 [Cisbio Bioassays, Codolet, France] and 1 nM anti-phosho-Serine antibody [Merck Millipore, cat. #35-002] and 0.4 nM LANCE EU-W1024 labeled anti-mouse IgG antibody [Perkin-Elmer, product no. AD0077, alternatively a Terbium-cryptate-labeled anti-mouse IgG antibody from Cisbio Bioassays can be used]). The stopped reaction mixture was further incubated 1 h at 22° C. in order to allow the formation of complexes between peptides and detection reagents. Subsequently, the amount of product was evaluated by measurement of the resonance energy transfer from the Eu-chelate-antibody complex recognizing the Phosphoserine residue to the streptavidin-XL665 bound to the biotin moiety of the peptide. […] The data were normalised using two sets of control wells for high- (=enzyme reaction without inhibitor=0%=Minimum inhibition) and low- (=all assay components without enzyme=100%=Maximum inhibition) Bub1 activity. IC50 values were calculated by fitting the normalized inhibition data to a 4-parameter logistic equation (Minimum, Maximum, IC50, Hill; Y=Max+(Min−Max)/(1+(X/IC50)Hill)).
On the technique in general: TR-FRET usually uses a lanthanide donor and a delayed reading to cut background.
Broadly, the IC50 is the midpoint of a concentration-inhibition curve. Take `CC(C)C1CC(=O)c2c([nH]c(-c3ccnc(N)c3)c2Nc2ccc(F)c(F)c2)C1` (stereo not drawn) [Example 222, 2-(2-aminopyridin-4-yl)-3-[(3,4-difluorophenyl)amino]-6-(propan-2-yl)-1,5,6,7-tetrahydro-4H-indol-4-one]: the half-inhibitory concentration (IC50) is 28.5 nM.

With `CC(=O)Nc1cc(-c2[nH]c3c(c2Nc2ccccc2)C(=O)CCC3)ccn1` [Example 39, N-{4-[4-oxo-3-(phenylamino)-4,5,6,7-tetrahydro-1H-indol-2-yl]pyridin-2-yl}acetamide], the IC50 turned out to be 14.8 nM.

As for `CC1(C)CC(=O)c2c([nH]c(-c3ccnc(C(F)F)c3)c2Nc2cccc(F)c2)C1` [Example 402, 2-[2-(difluoromethyl)pyridin-4-yl]-3-[(3-fluorophenyl)amino]-6,6-dimethyl-1,5,6,7-tetrahydro-4H-indol-4-one], the 50% inhibitory concentration (IC50) stood at 312 nM.

On to `O=C(Nc1cc(-c2[nH]c3c(c2Nc2ccccc2)C(=O)CCC3)ccn1)c1ccc(F)cc1` [Example 266, 4-fluoro-N-{4-[4-oxo-3-(phenylamino)-4,5,6,7-tetrahydro-1H-indol-2-yl]pyridin-2-yl}benzamide], for which the half-inhibitory concentration (IC50) stood at 13.8 nM.

In the case of `CC(C)(O)C(=O)Nc1cc(-c2[nH]c3c(c2Nc2ccccc2)C(=O)CCC3)ccn1` [Example 327, 2-hydroxy-2-methyl-N-{4-[4-oxo-3-(phenylamino)-4,5,6,7-tetrahydro-1H-indol-2-yl]pyridin-2-yl}propanamide], the half-inhibitory concentration (IC50) is 280 nM.

As for `O=C(Cc1cccs1)Nc1cc(-c2[nH]c3c(c2Nc2ccccc2)C(=O)CCC3)ccn1` [Example 290, N-{4-[4-oxo-3-(phenylamino)-4,5,6,7-tetrahydro-1H-indol-2-yl]pyridin-2-yl}-2-(thiophen-2-yl)acetamide], the IC50 is 13.9 nM.

Take `O=C(Nc1cc(-c2[nH]c3c(c2Nc2ccccc2)C(=O)CCC3)ccn1)c1ccn[nH]1` [Example 275, N-{4-[4-oxo-3-(phenylamino)-4,5,6,7-tetrahydro-1H-indol-2-yl]pyridin-2-yl}-1H-pyrazole-5-carboxamide]: the IC50 was 12.7 nM.

Take `CC1(C)CC(=O)c2c([nH]c(-c3ccncc3)c2Nc2cc(Cl)ccc2F)C1` [Example 87, 3-[(5-chloro-2-fluorophenyl)amino]-6,6-dimethyl-2-(pyridin-4-yl)-1,5,6,7-tetrahydro-4H-indol-4-one]: the IC50 turned out to be 1780 nM.

As to `CC1(C)CC(=O)c2c([nH]c(-c3cc(N)ncn3)c2Nc2ccccc2)C1` [Example 224, 2-(6-aminopyrimidin-4-yl)-6,6-dimethyl-3-(phenylamino)-1,5,6,7-tetrahydro-4H-indol-4-one], the half-maximal inhibitory concentration (IC50) came out at 248 nM.

For `CCCOc1cnccc1-c1[nH]c2c(c1Nc1ccccc1)C(=O)CC(C)(C)C2` [Example 405, 6,6-dimethyl-3-(phenylamino)-2-(3-propoxypyridin-4-yl)-1,5,6,7-tetrahydro-4H-indol-4-one], the half-inhibitory concentration (IC50) came out at 8.4 nM.

As to `CC(=O)Nc1cc(-c2[nH]c3c(c2Nc2ccccc2)C(=O)CC(C)(C)C3)ncn1` [Example 357, N-{6-[6,6-dimethyl-4-oxo-3-(phenylamino)-4,5,6,7-tetrahydro-1H-indol-2-yl]pyrimidin-4-yl}acetamide], the IC50 was determined as 3080 nM.

Regarding `CCC(O)c1cccc(Nc2c(-c3ccncc3)[nH]c3c2C(=O)CC(C)(C)C3)c1` (stereo not drawn) [Example 154, 3-{[3-(1-hydroxypropyl)phenyl]amino}-6,6-dimethyl-2-(pyridin-4-yl)-1,5,6,7-tetrahydro-4H-indol-4-one], the half-inhibitory concentration (IC50) was 3000 nM.

`CC1(C)CC(=O)c2c([nH]c(-c3ccncc3)c2Nc2ncccc2CO)C1` [Example 511, 3-{[3-(hydroxymethyl)pyridin-2-yl]amino}-6,6-dimethyl-2-(pyridin-4-yl)-1,5,6,7-tetrahydro-4H-indol-4-one]: the 50% inhibitory concentration (IC50) amounted to 65.2 nM.

With `CC1(C)CC(=O)c2c([nH]c(-c3ccncc3)c2Nc2ccc(F)c(Cl)c2)C1` [Example 95, 3-[(3-chloro-4-fluorophenyl)amino]-6,6-dimethyl-2-(pyridin-4-yl)-1,5,6,7-tetrahydro-4H-indol-4-one], the half-maximal inhibitory concentration (IC50) was 43.7 nM.

Regarding `CC1(C)CC(=O)c2c([nH]c(-c3ccncc3)c2Nc2ccc(F)c(CO)c2)C1` [Example 111, 3-{[4-fluoro-3-(hydroxymethyl)phenyl]amino}-6,6-dimethyl-2-(pyridin-4-yl)-1,5,6,7-tetrahydro-4H-indol-4-one], the IC50 came out at 2630 nM.

`CC1(C)CC(=O)c2c([nH]c(-c3ccnc(OCc4ccccc4)c3)c2Nc2ccccc2)C1` [Example 468, 2-[2-(benzyloxy)pyridin-4-yl]-6,6-dimethyl-3-(phenylamino)-1,5,6,7-tetrahydro-4H-indol-4-one]: the IC50 is over 20000 nM.

Take `CC1(C)CC(=O)c2c([nH]c(-c3ccncc3)c2Nc2cccc(-c3ccccc3)c2)C1` [Example 45, 3-(biphenyl-3-ylamino)-6,6-dimethyl-2-(pyridin-4-yl)-1,5,6,7-tetrahydro-4H-indol-4-one]: the IC50 is 20.8 nM.

As for `CC1(C)CC(=O)c2c([nH]c(-c3ccnc(NC(=O)[C@H]4C[C@H]4F)c3)c2Nc2ccccc2)C1` [Example 259], the IC50 worked out at 10.1 nM.

Consider `Nc1cc(-c2[nH]c3c(c2Nc2ccccc2)C(=O)CC2(CC2)C3)ccn1` [Example 206, 2′-(2-aminopyridin-4-yl)-3′-(phenylamino)-1′,7′-dihydrospiro[cyclopropane-1,6′-indol]-4′(5′H)-one], for which the IC50 stood at 9.73 nM.

Regarding `COC(=O)C[n+]1ccc(-c2[nH]c3c(c2Nc2ccccc2)C(=O)CC(C)(C)C3)cc1` [Example 193, 4-[6,6-dimethyl-4-oxo-3-(phenylamino)-4,5,6,7-tetrahydro-1H-indol-2-yl]-1-(2-methoxy-2-oxoethyl)pyridinium bromide], the IC50 was 921 nM.

As for `CC1(C)CC(=O)c2c([nH]c(-c3ccnc(O)c3)c2Nc2ccccc2)C1` [Example 469, 2-(2-hydroxypyridin-4-yl)-6,6-dimethyl-3-(phenylamino)-1,5,6,7-tetrahydro-4H-indol-4-one], the 50% inhibitory concentration (IC50) is 2160 nM.

`O=C1CCCc2[nH]c(-c3ccncc3Cl)c(Nc3ccc(F)cc3)c21` [Example 142, 2-(3-chloropyridin-4-yl)-3-[(4-fluorophenyl)amino]-1,5,6,7-tetrahydro-4H-indol-4-one]: the IC50 stood at 68.5 nM.

With `CC1(C)OC[C@H](CNc2cc(-c3[nH]c4c(c3Nc3ccccc3)C(=O)CCC4)ccn2)O1` [Example 370, 2-[2-({[(4S)-2,2-dimethyl-1,3-dioxolan-4-yl]methyl}amino)pyridin-4-yl]-3-(phenylamino)-1,5,6,7-tetrahydro-4H-indol-4-one], the IC50 was determined as 1300 nM.

Take `O=C(Nc1cc(-c2[nH]c3c(c2Nc2ccccc2)C(=O)CCC3)ccn1)c1ccccc1` [Example 238, N-{4-[4-oxo-3-(phenylamino)-4,5,6,7-tetrahydro-1H-indol-2-yl]pyridin-2-yl}benzamide]: the 50% inhibitory concentration (IC50) was 17.7 nM.

For the compound `CC1(C)CC(=O)c2c([nH]c(-c3ccnc(NC(=O)c4ccc(F)cc4)c3)c2Nc2ccccc2)C1` [Example 267, N-{4-[6,6-dimethyl-4-oxo-3-(phenylamino)-4,5,6,7-tetrahydro-1H-indol-2-yl]pyridin-2-yl}-4-fluorobenzamide], the IC50 stood at 9.55 nM.

On to `O=C(Nc1cc(-c2[nH]c3c(c2Nc2ccccc2)C(=O)CCC3)ccn1)c1ccncc1` [Example 268, N-{4-[4-oxo-3-(phenylamino)-4,5,6,7-tetrahydro-1H-indol-2-yl]pyridin-2-yl}pyridine-4-carboxamide], for which the IC50 amounted to 22.7 nM.

Regarding `Cn1nnnc1Nc1cc(-c2[nH]c3c(c2Nc2ccccc2)C(=O)CCC3)ccn1` [Example 374, 2-{2-[(1-methyl-1H-tetrazol-5-yl)amino]pyridin-4-yl}-3-(phenylamino)-1,5,6,7-tetrahydro-4H-indol-4-one], the IC50 is 18.8 nM.

On to `CN[C@@H](C)C(=O)Nc1cc(-c2[nH]c3c(c2Nc2ccccc2)C(=O)CCC3)ccn1` [Example 304, N^2-methyl-N-{4-[4-oxo-3-(phenylamino)-4,5,6,7-tetrahydro-1H-indol-2-yl]pyridin-2-yl}-L-alaninamide], for which the IC50 stood at 174 nM.

For the compound `CC1CC(=O)c2c([nH]c(-c3ccncc3)c2Nc2ccccc2)C1` (stereo not drawn) [Example 22, 6-methyl-3-(phenylamino)-2-(pyridin-4-yl)-1,5,6,7-tetrahydro-4H-indol-4-one], the IC50 came to 10.5 nM.

Regarding `O=C1CCCc2[nH]c(-c3ccncc3OCC3CC3)c(Nc3ccccc3)c21` [Example 455, 2-[3-(cyclopropylmethoxy)pyridin-4-yl]-3-(phenylamino)-1,5,6,7-tetrahydro-4H-indol-4-one], the IC50 came to 24.4 nM.

The values are drawn from patent publication US10428044B2, “3-amino-1,5,6,7-tetrahydro-4H-indol-4-ones” (Bayer Pharma Aktiengesellschaft, priority 2014, dated 2019).
